# According to patent US11419852B2, “Beta-lactam compounds or salts thereof for use in long-acting prevention or treatment of a glucose metabolism disorder” (GLYCOLYSIS BIOMED CO., LTD., priority 2019, dated 2022):
# Marks after values point to notes of the source that are not given here.
# Assay: Body weight of mice recorded weekly
# Assay type: in vivo
# Description: Four to five weeks old db/db mice (BKS.Cg-Dock7^m+/+Lepr^db/JNarl) and m/m mice (BKS.Cg-Dock7^m+/Dock7^m+) were obtained from National Laboratory Animal Center ([…], Taiwan). […] PMI Nutrition International, Brentwood, Mo.) and water ad libitum. […] The mouse body weight (bw) and the amounts of water and food intake were recorded weekly for the entire study period.
# [1] = Ex 3: db/db mice, daily dosing 3 weeks at doses of Table 10, Baseline
# [2] = Ex 3: db/db mice, daily dosing 3 weeks at doses of Table 10, Final
# [3] = Ex 3: db/db mice, daily dosing 3 weeks at doses of Table 10, Week 3
# [4] = Ex 3: db/db mice, daily dosing 3 weeks at doses of Table 10, Week 6 (stopped for 3 weeks)
# [5] = Ex 3: db/db mice, daily dosing 3 weeks at doses of Table 10, Week 9 (stopped for 6 weeks)
structure (smiles),measurement,setting,value
"C[C@@H](O)[C@H]1C(=O)N2C(C(=O)O)=C(S[C@@H]3CN[C@H](C(=O)Nc4cccc(C(=O)O)c4)C3)[C@H](C)[C@H]12 [DMH, ertapenem]",Effect on body weight in db/db mice,"Ex 2, 0.1 mg/g bw and 0.4 mg/g bw",positive effects of body weight lowering
same,Body weight,"Ex 2 G3 db/db, 0.3 mg/g bw/day (row printed 0.3 DMH), dosing 6 weeks, week 14",43.94 ± 1.54^b
same,Body weight,"Ex 2 G3 db/db, 0.3 mg/g bw/day (row printed 0.3 DMH), dosing 6 weeks, week 15",46.46 ± 1.39^b
same,Body weight,"Ex 2 G3 db/db, 0.3 mg/g bw/day (row printed 0.3 DMH), dosing 6 weeks, week 16",47.68 ± 1.32^b
same,Body weight,"Ex 2 G3 db/db, 0.3 mg/g bw/day (row printed 0.3 DMH), dosing 6 weeks, week 17",48.31 ± 1.38^b
same,Body weight,"Ex 2 G3 db/db, 0.3 mg/g bw/day (row printed 0.3 DMH), dosing 6 weeks, week 18",49.57 ± 1.47^b
same,Body weight,"Ex 2 G3 db/db, 0.3 mg/g bw/day (row printed 0.3 DMH), dosing 6 weeks, week 19",51.98 ± 1.66^b
same,Body weight,"Ex 2 G4 db/db, DMH i.p. 0.1 mg/g bw/day, dosing 6 weeks, Baseline",29.44 ± 2.09^b
same,Body weight,"Ex 2 G4 db/db, DMH i.p. 0.1 mg/g bw/day, dosing 6 weeks, week 1",29.21 ± 2.01^b
same,Body weight,"Ex 2 G4 db/db, DMH i.p. 0.1 mg/g bw/day, dosing 6 weeks, week 2",29.95 ± 1.79^b
same,Body weight,"Ex 2 G4 db/db, DMH i.p. 0.1 mg/g bw/day, dosing 6 weeks, week 3",32.38 ± 1.38^b
same,Body weight,"Ex 2 G4 db/db, DMH i.p. 0.1 mg/g bw/day, dosing 6 weeks, week 4",33.49 ± 1.13^b
same,Body weight,"Ex 2 G4 db/db, DMH i.p. 0.1 mg/g bw/day, dosing 6 weeks, week 5",35.72 ± 1.01^b
same,Body weight,"Ex 2 G4 db/db, DMH i.p. 0.1 mg/g bw/day, dosing 6 weeks, week 6",36.73 ± 0.95^b
same,Body weight,"Ex 2 G4 db/db, DMH i.p. 0.1 mg/g bw/day, dosing 6 weeks, week 7",36.68 ± 0.83^b
same,Body weight,"Ex 2 G4 db/db, DMH i.p. 0.1 mg/g bw/day, dosing 6 weeks, week 8",37.83 ± 0.77^b
same,Body weight,"Ex 2 G4 db/db, DMH i.p. 0.1 mg/g bw/day, dosing 6 weeks, week 9",38.46 ± 0.8^b
same,Body weight,"Ex 2 G4 db/db, DMH i.p. 0.1 mg/g bw/day, dosing 6 weeks, week 10",39.43 ± 0.81^b
same,Body weight,"Ex 2 G4 db/db, DMH i.p. 0.1 mg/g bw/day, dosing 6 weeks, week 11",40.86 ± 0.82^b
same,Body weight,"Ex 2 G4 db/db, DMH i.p. 0.1 mg/g bw/day, dosing 6 weeks, week 12",42.59 ± 0.87^b
same,Body weight,"Ex 2 G4 db/db, DMH i.p. 0.1 mg/g bw/day, dosing 6 weeks, week 13",44.21 ± 0.99^b
same,Body weight,"Ex 2 G4 db/db, DMH i.p. 0.1 mg/g bw/day, dosing 6 weeks, week 14",43.56 ± 1.08^b
same,Body weight,"Ex 2 G4 db/db, DMH i.p. 0.1 mg/g bw/day, dosing 6 weeks, week 15",45.90 ± 1.18^b
same,Body weight,"Ex 2 G4 db/db, DMH i.p. 0.1 mg/g bw/day, dosing 6 weeks, week 16",46.80 ± 1.29^b
same,Body weight,"Ex 2 G4 db/db, DMH i.p. 0.1 mg/g bw/day, dosing 6 weeks, week 17",47.21 ± 1.26^b
same,Body weight,"Ex 2 G4 db/db, DMH i.p. 0.1 mg/g bw/day, dosing 6 weeks, week 18",48.14 ± 1.23^b
same,Body weight,"Ex 2 G4 db/db, DMH i.p. 0.1 mg/g bw/day, dosing 6 weeks, week 19",50.91 ± 1.22^b
same,Body weight,"Ex 2 G5 db/db, DMH i.p. 0.2 mg/g bw/day, dosing 6 weeks, Baseline",31.70 ± 1.46^b
same,Body weight,"Ex 2 G5 db/db, DMH i.p. 0.2 mg/g bw/day, dosing 6 weeks, week 1",31.31 ± 1.48^b
same,Body weight,"Ex 2 G5 db/db, DMH i.p. 0.2 mg/g bw/day, dosing 6 weeks, week 2",31.81 ± 1.12^bc
same,Body weight,"Ex 2 G5 db/db, DMH i.p. 0.2 mg/g bw/day, dosing 6 weeks, week 3",34.36 ± 0.75^bc
same,Body weight,"Ex 2 G5 db/db, DMH i.p. 0.2 mg/g bw/day, dosing 6 weeks, week 4",35.55 ± 0.61^bc
same,Body weight,"Ex 2 G5 db/db, DMH i.p. 0.2 mg/g bw/day, dosing 6 weeks, week 5",37.76 ± 0.49^bc
same,Body weight,"Ex 2 G5 db/db, DMH i.p. 0.2 mg/g bw/day, dosing 6 weeks, week 6",39.06 ± 0.54^bc
same,Body weight,"Ex 2 G5 db/db, DMH i.p. 0.2 mg/g bw/day, dosing 6 weeks, week 7",39.07 ± 0.45^bc
same,Body weight,"Ex 2 G5 db/db, DMH i.p. 0.2 mg/g bw/day, dosing 6 weeks, week 8",39.99 ± 0.39^bc
same,Body weight,"Ex 2 G5 db/db, DMH i.p. 0.2 mg/g bw/day, dosing 6 weeks, week 9",40.63 ± 0.27^bcd
same,Body weight,"Ex 2 G5 db/db, DMH i.p. 0.2 mg/g bw/day, dosing 6 weeks, week 10",41.39 ± 0.29^b
same,Body weight,"Ex 2 G5 db/db, DMH i.p. 0.2 mg/g bw/day, dosing 6 weeks, week 11",42.98 ± 0.35^b
same,Body weight,"Ex 2 G5 db/db, DMH i.p. 0.2 mg/g bw/day, dosing 6 weeks, week 12",44.66 ± 0.38^b
same,Body weight,"Ex 2 G5 db/db, DMH i.p. 0.2 mg/g bw/day, dosing 6 weeks, week 13",46.52 ± 0.45^b
same,Body weight,"Ex 2 G5 db/db, DMH i.p. 0.2 mg/g bw/day, dosing 6 weeks, week 14",46.10 ± 0.51^b
same,Body weight,"Ex 2 G5 db/db, DMH i.p. 0.2 mg/g bw/day, dosing 6 weeks, week 15",48.58 ± 0.55^b
same,Body weight,"Ex 2 G5 db/db, DMH i.p. 0.2 mg/g bw/day, dosing 6 weeks, week 16",49.65 ± 0.63^b
same,Body weight,"Ex 2 G5 db/db, DMH i.p. 0.2 mg/g bw/day, dosing 6 weeks, week 17",49.96 ± 0.68^b
same,Body weight,"Ex 2 G5 db/db, DMH i.p. 0.2 mg/g bw/day, dosing 6 weeks, week 18",50.71 ± 0.87^b
same,Body weight,"Ex 2 G5 db/db, DMH i.p. 0.2 mg/g bw/day, dosing 6 weeks, week 19",52.73 ± 1.04^b
same,Body weight,"Ex 2 G6 db/db, DMH i.p. 0.4 mg/g bw/day, dosing 6 weeks, Baseline",31.61 ± 1.03^b
same,Body weight,"Ex 2 G6 db/db, DMH i.p. 0.4 mg/g bw/day, dosing 6 weeks, week 1",31.23 ± 0.98^b
same,Body weight,"Ex 2 G6 db/db, DMH i.p. 0.4 mg/g bw/day, dosing 6 weeks, week 2",31.62 ± 0.77^bc
same,Body weight,"Ex 2 G6 db/db, DMH i.p. 0.4 mg/g bw/day, dosing 6 weeks, week 3",33.98 ± 0.54^b
same,Body weight,"Ex 2 G6 db/db, DMH i.p. 0.4 mg/g bw/day, dosing 6 weeks, week 4",34.29 ± 0.59^b
same,Body weight,"Ex 2 G6 db/db, DMH i.p. 0.4 mg/g bw/day, dosing 6 weeks, week 5",36.44 ± 0.71^b
same,Body weight,"Ex 2 G6 db/db, DMH i.p. 0.4 mg/g bw/day, dosing 6 weeks, week 6",37.16 ± 0.8^b
same,Body weight,"Ex 2 G6 db/db, DMH i.p. 0.4 mg/g bw/day, dosing 6 weeks, week 7",37.16 ± 0.93^b
same,Body weight,"Ex 2 G6 db/db, DMH i.p. 0.4 mg/g bw/day, dosing 6 weeks, week 8",38.67 ± 1.24^b
same,Body weight,"Ex 2 G6 db/db, DMH i.p. 0.4 mg/g bw/day, dosing 6 weeks, week 9",39.72 ± 1.36^bc
same,Body weight,"Ex 2 G6 db/db, DMH i.p. 0.4 mg/g bw/day, dosing 6 weeks, week 10",40.81 ± 1.34^b
same,Body weight,"Ex 2 G6 db/db, DMH i.p. 0.4 mg/g bw/day, dosing 6 weeks, week 11",42.61 ± 1.31^b
same,Body weight,"Ex 2 G6 db/db, DMH i.p. 0.4 mg/g bw/day, dosing 6 weeks, week 12",44.54 ± 1.63^b
same,Body weight,"Ex 2 G6 db/db, DMH i.p. 0.4 mg/g bw/day, dosing 6 weeks, week 13",45.69 ± 1.86^b
same,Body weight,"Ex 2 G6 db/db, DMH i.p. 0.4 mg/g bw/day, dosing 6 weeks, week 14",45.08 ± 1.89^b
same,Body weight,"Ex 2 G6 db/db, DMH i.p. 0.4 mg/g bw/day, dosing 6 weeks, week 15",47.29 ± 1.95^b
same,Body weight,"Ex 2 G6 db/db, DMH i.p. 0.4 mg/g bw/day, dosing 6 weeks, week 16",48.79 ± 1.95^b
same,Body weight,"Ex 2 G6 db/db, DMH i.p. 0.4 mg/g bw/day, dosing 6 weeks, week 17",48.99 ± 1.87^b
same,Body weight,"Ex 2 G6 db/db, DMH i.p. 0.4 mg/g bw/day, dosing 6 weeks, week 18",50.70 ± 1.87^b
same,Body weight,"Ex 2 G6 db/db, DMH i.p. 0.4 mg/g bw/day, dosing 6 weeks, week 19",53.56 ± 1.99^b
same,Body weight,[1],29.3 ± 1^b
same,Body weight,[2],38.3 ± 1^c
same,Body weight,[3],33.5 ± 1^cd
same,Body weight,[4],35.1 ± 1^b
same,Body weight,[5],40.0 ± 1^c
"CN(C)C(=N)N=C(N)N [Met, metformin]",Body weight,"Ex 2 G3 db/db, Met oral 0.3 mg/g bw/day, dosing 6 weeks, Baseline",31.17 ± 0.47^b
same,Body weight,"Ex 2 G3 db/db, Met oral 0.3 mg/g bw/day, dosing 6 weeks, week 1",30.81 ± 0.48^b
same,Body weight,"Ex 2 G3 db/db, Met oral 0.3 mg/g bw/day, dosing 6 weeks, week 2",32.61 ± 0.46^bc
same,Body weight,"Ex 2 G3 db/db, Met oral 0.3 mg/g bw/day, dosing 6 weeks, week 3",35.97 ± 0.57^cd
same,Body weight,"Ex 2 G3 db/db, Met oral 0.3 mg/g bw/day, dosing 6 weeks, week 4",37.47 ± 0.79^c
same,Body weight,"Ex 2 G3 db/db, Met oral 0.3 mg/g bw/day, dosing 6 weeks, week 5",40.15 ± 0.93^c
same,Body weight,"Ex 2 G3 db/db, Met oral 0.3 mg/g bw/day, dosing 6 weeks, week 6",41.82 ± 0.98^d
same,Body weight,"Ex 2 G3 db/db, Met oral 0.3 mg/g bw/day, dosing 6 weeks, week 7",42.38 ± 1.25^d
same,Body weight,"Ex 2 G3 db/db, Met oral 0.3 mg/g bw/day, dosing 6 weeks, week 8",43.04 ± 1.54^d
same,Body weight,"Ex 2 G3 db/db, Met oral 0.3 mg/g bw/day, dosing 6 weeks, week 9",43.68 ± 1.58^d
same,Body weight,"Ex 2 G3 db/db, Met oral 0.3 mg/g bw/day, dosing 6 weeks, week 10",43.40 ± 1.4^b
same,Body weight,"Ex 2 G3 db/db, Met oral 0.3 mg/g bw/day, dosing 6 weeks, week 11",44.15 ± 1.37^b
same,Body weight,"Ex 2 G3 db/db, Met oral 0.3 mg/g bw/day, dosing 6 weeks, week 12",45.24 ± 1.37^b
same,Body weight,"Ex 2 G3 db/db, Met oral 0.3 mg/g bw/day, dosing 6 weeks, week 13",44.68 ± 1.6^b
same,Body weight,[1],28.9 ± 1^b
same,Body weight,[2],37.0 ± 1^c
same,Body weight,[3],35.9 ± 1^d
same,Body weight,[4],39.5 ± 1^c
same,Body weight,[5],39.7 ± 1^c
